# “Also recorded” adds a separate entry of the source. Counter-ions that a name gives are not always drawn.
# What was measured:
# [1] = system: GMC101 strain expressing human β-amyloid in muscle; assay: Alzheimer's disease model: paralysis of GMC101 strain; assay type: in vivo, Caenorhabditis elegans; details: for paralysis with age: 20° C., monitored during adulthood
# Excerpt: Data display from six independent biological replicates, n≥215.
# FIG. 4b illustrates that paralysis of GMC101 Alzheimer's disease model is ameliorate with TS and ES.
# Assays performed with normal NGM plates. Data display from three independent biological replicates, n>130.
# FIG. 15 illustrates that treatment with Androsterone Sulfate (AS) ameliorates the symptoms of Alzheimer's model in Caenorhabditis elegans. The strain GMC101 expresses the human b-amyloid in muscle cells and generate paralysis with age. […] Data from 5 biological replicates. Paralysis was monitored during adulthood. […] More than 200 nematodes were analyzed. Nematodes were synchronized and assayed at 20° C.
# [2] = system: NL5901 strain expressing α-synuclein in muscle cells; assay type: in vivo, Caenorhabditis elegans; details: 1 μg/ml
# [3] = system: mammalian model with intrahippocampal administration of βA oligomers; details: local administration; cited from earlier work
# [4] = system: C. elegans; assay: Longevity (lifespan) assay in C. elegans; assay type: in vivo, Caenorhabditis elegans
# Excerpt: Worms were cultivated in UV-killed E. coli.
# FIGS. 13c and 13d illustrate that additional biological replicates of longevity curve with sulfated C19 steroid hormones.
# [5] = system: daf-2(e1370); assay: Development / larval arrest at 25° C. (daf-2 interaction); assay type: in vivo, Caenorhabditis elegans; details: for L1 arrest: daf-2(e1370) background
# Method: FIG. 5i illustrates example of sul-2(pv17) larvae, Dauer larval arrest of daf-2(e1370) or L1 arrest of daf-2(e1370); sul-2(pv17) and daf-2(e1370); sul-2(gk187) at 25° C. Animals were grown up to L4 at 16° C., then shifted at 25° C., progeny were scored or imaged after 72 hours. Photographs were taken in a Leica scope.
# Photographs were taken in a Leica scope. Arrow heads: Dauers, arrows: L1s.
# [6] = system: wild type mice injected with β-amyloid oligomers in the hippocampus; assay: Passive avoidance test, acute AD model (intrahippocampal β-amyloid oligomers); assay type: in vivo
# Excerpt: FIGS. 3i and 3j illustrate that the effect of intrahippocampal and oral administration of STX64 in the passive avoidance test in wild type mice injected with β-amyloid oligomers in the hippocampus. The number of mice in each group were >5.
# FIG. 3p illustrates effect of oral administration with STX64 in more than 15-month-old APP-PS1 mice, and comparation with APP-PS1 and wild type mice older than 15 months in the passive avoidance test. The number of mice in each group were >5. In histological analysis, * represent significant differences between vehicle- and STX64 administrated APP-PS1 mice. […]
# As STX64 ameliorated neurodegeneration in C. elegans models, we tested the effect of this drug on cognitive alterations provoked by intrahippocampal βA oligomers infusion, an acute AD mammalian model (FIG. 3i). […] To evaluate the effect of STX64 oral treatment on amyloid pathology in a chronic AD mice model, we assessed the effect of 3-4 weeks of STX64 oral treatment on amyloid deposition in the […] (the cerebral cortex and the hippocampus) of >15-month-old APP-PS1 mice (FIG. 4k). […]
# [7] = system: APP-PS1 mice; assay: Passive avoidance test in chronic AD model; assay type: in vivo; details: APP-PS1 mice older than 15 months; 3-4 weeks oral
# Excerpt: FIG. 3p illustrates effect of oral administration with STX64 in more than 15-month-old APP-PS1 mice, and comparation with APP-PS1 and wild type mice older than 15 months in the passive avoidance test. The number of mice in each group were >5. In histological analysis, * represent significant differences between vehicle- and STX64 administrated APP-PS1 mice. In behavioral test, * represent significant differences between the short-term and long-term memory sessions (STM and LTM, respectively) and the training session in the same experimental group; and, + represent significant differences between the STM and LTM sessions between each experimental group and β-amyloid group. A symbol, p<0.05, two symbols, p<0.01, and three symbols, p<0.001.
# As STX64 ameliorated neurodegeneration in C. elegans models, we tested the effect of this drug on cognitive alterations provoked by intrahippocampal βA oligomers infusion, an acute AD mammalian model (FIG. 3i). […] To evaluate the effect of STX64 oral treatment on amyloid pathology in a chronic AD mice model, we assessed the effect of 3-4 weeks of STX64 oral treatment on amyloid deposition in the […] (the cerebral cortex and the hippocampus) of >15-month-old APP-PS1 mice (FIG. 4k). […] We wondered if this histological improvement correlated with amelioration of cognitive behavioral deficit. […]
# [8] = system: APP-PS1 mice; assay: β-amyloid deposition in chronic AD model; assay type: in vivo
# Method: FIG. 3k illustrates that representative β-amyloid-immunoreactive images assessed in the frontal cortex and the hippocampus of APP-PS1 mice older than 15 months of age after 3-4 weeks of vehicle or STX64 intake (0.005 mg/ml in drink water).
# FIGS. 3l-3n illustrate quantification of percentage of β-amyloid area (c), deposition density (d) and average plaque size (e) in the frontal cortex and the hippocampus of >15 months-old APP-PS1 mice after 3-4 weeks of oral administration with STX64 or vehicle. n=4 mice per groups.
# FIG. 3o illustrates temporal course of β-amyloid deposition in APP-PS1 mice and the effect of 3-4 weeks STX64 oral treatment on β-amyloid area in the frontal cortex (upper panel) and the hippocampus (lower panel). The number of microphotographs used was more than 3 in all the mice used.
# As STX64 ameliorated neurodegeneration in C. elegans models, we tested the effect of this drug on cognitive alterations provoked by intrahippocampal βA oligomers infusion, an acute AD mammalian model (FIG. 3i). […] To evaluate the effect of STX64 oral treatment on amyloid pathology in a chronic AD mice model, we assessed the effect of 3-4 weeks of STX64 oral treatment on amyloid deposition in the […] (the cerebral cortex and the hippocampus) of >15-month-old APP-PS1 mice ([…]). […] We wondered if this histological improvement correlated with amelioration of cognitive behavioral deficit. For that, we compared cognition capacities in APP-PS1 mice older than 15-month-old treated with vehicle or STX64 for 3-4 weeks.
# [9] = system: Q40 aggregates (AM141 strain); assay: Huntington model: polyglutamine (Q40) aggregates; assay type: in vivo, Caenorhabditis elegans; details: Q40 background; 1 μg/ml; 5-day old worms
# Excerpt: Strains AM140 and AM141 respectively.
# In this model, GFP-labelled dopaminergic neurons die due to α-synuclein toxicity. […] We also tested two different strains of Alzheimer's disease (AD) in worms, where immobility is caused by expression of βA protein in muscle cells.
# [10] = system: CL2006 strain expressing human β-amyloid in muscle; assay: Alzheimer's disease model: paralysis with age of CL2006 strain; assay type: in vivo, Caenorhabditis elegans
# Excerpt: FIG. 12g illustrates that expression of human β-amyloid in muscle provokes paralysis with age (CL2006 strain) that is ameliorated by STX64 treatment. Log-rank (Mantel-Cox) test, for sul-2 deletion p=0.0027 and STX treatment p=0.007.
# [11] = wild type background, hormone 1 μg/ml
# [12] = thermodependent paralysis, 1 μg/ml
compound,measurement,setting,value
"C[C@]12CC[C@@H](OS(=O)(=O)O)C[C@@H]1CC[C@@H]1[C@@H]2CC[C@]2(C)C(=O)CC[C@@H]12 [AS, [(3R,5S,8R,9S,10S,13S,14S)-10,13-Dimethyl-17-oxo-1,2,3,4,5,6,7,8,9,11,12,14,15,16-tetradecahydrocyclopenta[a]phenanthren-3-yl] sulfate]",paralysis with age,[1]; 1 μg/ml,reduce this effect
same,paralysis with age,[1]; 5 μg/ml,reduce this effect
C[C@]12CC[C@H](O)CC1=CC[C@@H]1[C@@H]2CC[C@]2(C)C(=O)CC[C@@H]12 [DHEA],mobility with age,[2],showed no effect; also recorded: no effect is observed
CCCCCCCCCCCCCC(=O)NCCc1ccc(OS(N)(=O)=O)cc1 [DU-14],memory loss,[3],could alleviate memory loss
"C[C@]12CC[C@H]3[C@@H](CCC4=CC(=O)CC[C@@]43C)[C@@H]1CC[C@H]2OS(=O)(=O)O [ES, N,N-diethylethanamine; [(8R,9S,10R,13S,14S,17R)-10,13-dimethyl-3-oxo-1,2,6,7,8,9,11,12,14,15,16,17-dodecahydrocyclopenta[a]phenanthren-17-yl] hydrogen sulfate]",life span,"[4]; sul-2(gk187) / sul-2 mutants background, hormone 1 μg/ml",did not further increase longevity in sul-2 mutants backgrounds; also recorded: does not further increase in sul-2(gk187)
same,life span,"[4]; sul-2(pv17) background, hormone 1 μg/ml",does not increase further in sul-2(pv17)
same,life span,[4]; [11],increases lifespan in wild type background; also recorded: increased in longevity on a wild type background; also recorded: increases life span in a wild type background
same,mobility with age,[2],improves the mobility
same,L1 arrest,[5],increase
same,paralysis phenotype,"[1]; normal NGM plates, 1 μg/ml",reduced
same,paralysis phenotype,[1]; [12],ameliorate
NS(=O)(=O)Oc1ccc2c3c(c(=O)oc2c1)CCCCC3 [STX64],"cognitive deficiencies, passive avoidance test",[6]; local (intrahippocampal) administration,reverted the cognitive deficiencies
same,"cognitive deficiencies, passive avoidance test",[6]; systemic (oral) administration,reverted the cognitive deficiencies
same,"lifespan, dependence on daf-36","[4]; daf-36 background, STX64 1 μg/ml",DAF-36 is required for the longevity; also recorded: necessary for the increase of longevity
same,life span,"[4]; sul-2 (gk187) deletion background, STX64 1 μg/ml, UV-killed E. coli",not in sul-2 (gk187) background; also recorded: does not further increase the longevity of sul-2 deletion mutants
same,life span,"[4]; wild type animals, STX64 1 μg/ml, UV-killed E. coli",increases lifespan in wild type animals; also recorded: an increase in longevity
same,life span,"[4]; wild type, non-UV E. coli",increases lifespan of wild type
same,mobility with age,[2],significantly improved mobility; also recorded: protective effect
same,"cognitive deficiencies, passive avoidance test",[7],completely reverted cognitive deficiencies
same,βA plaque density,"[8]; >15-month-old APP-PS1 mice, 3-4 weeks oral, 0.005 mg/ml in drink water, cortex and hippocampus",significant reduction
same,βA plaque size,"[8]; >15-month-old APP-PS1 mice, 3-4 weeks oral, cortex",significant reduction
same,βA immunoreactive area,"[8]; >15-month-old APP-PS1 mice, 3-4 weeks oral, cortex and hippocampus",reduced in both tissues
same,βA deposition versus normal temporal course,[8]; >15-month-old treated mice compared to un-treated APP-PS1 mice of 10-12 months,reduces βA deposition
same,L1 arrest,[5],mainly arrests in L1
same,development,[5]; wild type,does not affect development of wild type
same,paralysis phenotype,[1]; [12],delayed paralysis; also recorded: the paralysis phenotype is ameliorated
same,number of Q40 aggregates,[9],reduced the number of aggregates; also recorded: Q40 aggregates are reduced
same,paralysis with age,[10],delayed paralysis; also recorded: ameliorated
"C[C@]12CC[C@H]3[C@@H](CCC4=CC(=O)CC[C@@]43C)[C@@H]1CC[C@@H]2OS(=O)(=O)O [TS, [(8R,9S,10R,13S,14S,17S)-10,13-dimethyl-3-oxo-1,2,6,7,8,9,11,12,14,15,16,17-dodecahydrocyclopenta[a]phenanthren-17-yl]hydrogen sulfate]",life span,[4]; [11],do not affect; also recorded: does not affect longevity
same,mobility with age,[2],improves the mobility
same,L1 arrest,[5],increase
same,paralysis phenotype,"[1]; normal NGM plates, 1 μg/ml",reduced
same,paralysis phenotype,[1]; [12],ameliorate
C[C@]12CC[C@H]3[C@@H](CCC4=CC(=O)CC[C@@]43C)[C@@H]1CC[C@@H]2O [testosterone],mobility with age,[2],showed no effect; also recorded: no effect is observed
dehydroepiandrosterone sulfate [DHEAS],life span,[4]; [11],do not affect; also recorded: does not affect longevity
same,mobility with age,[2],improves the mobility
same,L1 arrest,[5],increase
pregnenolone sulfate,mobility with age,[2],showed no effect; also recorded: no effect is observed
